Reference: US5288709A, “Erythromycin derivatives” (priority 1991, dated 1994)
In brackets after ≈: the same amount, converted by molar mass. Read-outs that look alike come from different tables or passages of the source.

Experiments:
Assay in all cases: In-vitro antimicrobial activity primary screen (agar dilution MIC)
Assay type in all cases: cell-based
Acinetobacter SP CMX 669 = conditions: Acinetobacter SP CMX 669, BHI agar, 20-24 h
Protocol: (§1) The antimicrobial spectra of several of the compounds of the present invention were tested as described below.
(§2) Twelve petri dishes containing successive aqueous dilutions of the test compounds, mixed with 10 mL of sterilized Brain Heart Infusion (BHI) agar (Difco 0418-01-5), were prepared. Each plate was inoculated with 1:100 (or 1:10 for slow growing strains (primarily Micrococcus and Streptococcus) dilutions of up to 32 different microorganisms, using a Steers replicator block. The inoculated plates were incubated at 35 37° C. for 20-24 hours. In addition, a control plate, using BHI agar containing no test compound, was prepared and incubated at the beginning and the end of each test.
(§3) An additional plate containing a compound having known susceptibility patterns for the organisms being tested and belonging to the same antibiotic class as the test compounds was also prepared and incubated as a further control, as well as to provide test-to test comparability.
(§4) After incubation, each plate was read. The MIC (minimum inhibitory concentration) is defined as the lowest concentration of test compound yielding no growth, a slight haze, or sparsely isolated colonies on the inoculum spot as compared to the growth control containing no test compound.

[1] = system: Pseudomonas aeruginosa A5007
Protocol: as §1, §2, §3, §4

[2] = system: Enterococcus faecium ATCC 8043
Protocol: as §1, §2, §3, §4

[3] = system: Staphylococcus aureus A5177; conditions: Staphylococcus aureus, A5177, 24 h
Protocol: as §1, §2, §3, §4

Escherichia coli SS = conditions: Escherichia coli, 24 h, BHI agar, 20-24 h
Protocol: as §1, §2, §3, §4

[4] = system: Staphylococcus aureus ATCC 6538P; conditions: Staphylococcus aureus, ATCC6538P, 24 h, BHI agar, 20-24 h
Protocol: as §1, §2, §3, §4

[5] = system: Staphylococcus aureus 45 RAR2; conditions: Staphylococcus aureus, 45RAR2, 24 h, BHI agar, 20-24 h
Protocol: as §1, §2, §3, §4

[6] = system: Streptococcus bovis A5169; conditions: Streptococcus equinus, A5169, 24 h, BHI agar, 20-24 h
Protocol: as §1, §2, §3, §4

Pseudomonas cepacia 2961 = conditions: BHI agar, 20-24 h
Protocol: as §1, §2, §3, §4

[7] = system: Staphylococcus epidermidis 3519; conditions: BHI agar, 20-24 h, read-out: MIC
Protocol: as §1, §2, §3, §4

[8] = system: Providencia stuartii CMX 640
Protocol: as §1, §2, §3, §4

[9] = system: Pseudomonas aeruginosa BMH10; conditions: BHI agar, 20-24 h
Protocol: as §1, §2, §3, §4

[10] = system: Pseudomonas aeruginosa K799/WT; conditions: Pseudomonas aeruginosa, K799/WT, 24 h
Protocol: as §1, §2, §3, §4

Escherichia coli JUHL = conditions: Escherichia coli JUHL, BHI agar, 20-24 h
Protocol: as §1, §2, §3, §4

Escherichia coli DC-2 = conditions: Escherichia coli DC-2, BHI agar, 20-24 h
Protocol: as §1, §2, §3, §4

Escherichia coli H560 = conditions: Escherichia coli H560, BHI agar, 20-24 h
Protocol: as §1, §2, §3, §4

[11] = system: Staphylococcus aureus NCTC 10649; conditions: NCTC10649, BHI agar, 20-24 h, read-out: MIC
Protocol: as §1, §2, §3, §4

[12] = system: Streptococcus agalactiae CMX 508; conditions: Streptococcus agalactiae, CMX508, 24 h, BHI agar, 20-24 h
Protocol: as §1, §2, §3, §4

[13] = system: Micrococcus luteus ATCC 4698; conditions: Micrococcus luteus, ATCC4698, 24 h, BHI agar, 20-24 h
Protocol: as §1, §2, §3, §4

[14] = system: Staphylococcus aureus 642A; conditions: BHI agar, 20-24 h, read-out: MIC
Protocol: as §1, §2, §3, §4

Staphylococcus aureus 45 = conditions: BHI agar, 20-24 h
Protocol: as §1, §2, §3, §4

[15] = system: Pseudomonas aeruginosa K799/61; conditions: Pseudomonas aeruginosa K799/61; BHI agar, 20-24 h; read-out: MIC
Protocol: as §1, §2, §3, §4

[16] = system: Micrococcus luteus ATCC 9341; conditions: ATCC9341, BHI agar, 20-24 h, read-out: MIC
Protocol: as §1, §2, §3, §4

[17] = system: Enterobacter aerogenes ATCC 13048; conditions: Klebsiella aerogenes, Enterobacter aerogenes ATCC 13048, BHI agar, 20-24 h
Protocol: as §1, §2, §3, §4

[18] = system: Streptococcus pyrogenes 2548 INDUC; conditions: BHI agar, 20-24 h
Protocol: as §1, §2, §3, §4

[19] = system: Streptococcus pyrogenes EES61; conditions: BHI agar, 20-24 h, read-out: MIC
Protocol: as §1, §2, §3, §4

[20] = system: Staphylococcus aureus CMX 553; conditions: Staphylococcus aureus, CMX553, 24 h, BHI agar, 20-24 h, read-out: MIC
Protocol: as §1, §2
as §3, with “comparability. Erythromycin A was used for this purpose.” for “comparability.”
as §4

| Compound | MIC [3] | MIC (Escherichia coli SS) | MIC [4] | MIC [5] | MIC [6] | MIC [7] | MIC [11] | MIC [12] | MIC [13] | MIC [14] | MIC [15] | MIC [16] | MIC [19] | MIC [20] | further results |
| --- | --- | --- | --- | --- | --- | --- | --- | --- | --- | --- | --- | --- | --- | --- | --- |
| CC[C@H]1OC(=O)[C@H](C)[C@@H](O[C@H]2C[C@@](C)(OC)[C@@H](O)[C@H](C)O2)[C@H](C)[C@@H](O[C@@H]2O[C@H](C)C[C@H](N(C)C)[C@H]2O)[C@](C)(OC)C[C@@H](C)[C@@H]2O[C@@]1(C)[C@@H](O)[C@H]2C [Example 28A] | 0.2 µg/mL (≈ 0.273 µM) | 0.2 µg/mL (≈ 0.273 µM) | 0.2 µg/mL (≈ 0.273 µM) | 0.2 µg/mL (≈ 0.273 µM) | 0.02 µg/mL (≈ 0.0273 µM) | 0.2 µg/mL (≈ 0.273 µM) | 0.2 µg/mL (≈ 0.273 µM) | 0.05 µg/mL (≈ 0.0683 µM) | 0.1 µg/mL (≈ 0.137 µM) | 0.2 µg/mL (≈ 0.273 µM) | 0.78 µg/mL (≈ 1.07 µM) | 0.05 µg/mL (≈ 0.0683 µM) | 0.02 µg/mL (≈ 0.0273 µM) | 0.2 µg/mL (≈ 0.273 µM) | MIC (Acinetobacter SP CMX 669; Acinetobacter, SPCMX669, 24 h): 6.2 µg/mL (≈ 8.47 µM); MIC ([1]; Pseudomonas aeruginosa, A5007, 24 h): > 100 µg/mL; MIC ([2]; ATCC8043, Enterococcus faecium ATCC 8043, BHI agar, 20-24 h, read-out: MIC): 0.05 µg/mL (≈ 0.0683 µM); MIC (Pseudomonas cepacia 2961; Burkholderia cepacia, 2961, 24 h): > 100 µg/mL; MIC ([8]; Providencia stuartii, CMX640, 24 h): > 100 µg/mL; MIC ([9]; Pseudomonas aeruginosa, BMH10, 24 h): 50 µg/mL (≈ 68.3 µM); MIC [10]: > 100 µg/mL; MIC (Escherichia coli JUHL; Escherichia coli, 24 h): 25 µg/mL (≈ 34.2 µM); MIC (Escherichia coli DC-2; Escherichia coli, DC2, 24 h): 25 µg/mL (≈ 34.2 µM); MIC (Escherichia coli H560; Escherichia coli, H560, 24 h): 25 µg/mL (≈ 34.2 µM); MIC (Staphylococcus aureus 45; Staphylococcus aureus, 45, 24 h): 3.1 µg/mL (≈ 4.24 µM); MIC ([17]; ATCC13048, 24 h): 50 µg/mL (≈ 68.3 µM); MIC ([18]; Streptococcus, 2548INDUC, 24 h): 3.1 µg/mL (≈ 4.24 µM) |
| CC[C@H]1OC(=O)[C@H](C)[C@@H](O[C@H]2C[C@@](C)(OC)[C@@H](NC(N)=O)[C@H](C)O2)[C@H](C)[C@@H](O[C@@H]2O[C@H](C)C[C@H](N(C)C)[C@H]2O)[C@](C)(O)C[C@@H](C)[C@@H]2O[C@@]1(C)C(=O)[C@H]2C [Example 32, (4"S,9S)-4"-[(aminocarbonyl)amino]-9-deoxo-4",11,12-trideoxy-9,12-epoxy-11-oxoerythromycin A] | > 100 µg/mL | 0.2 µg/mL (≈ 0.264 µM) | 0.1 µg/mL (≈ 0.132 µM) | 0.39 µg/mL (≈ 0.515 µM) | 0.05 µg/mL (≈ 0.066 µM) | 0.2 µg/mL (≈ 0.264 µM) | 0.1 µg/mL (≈ 0.132 µM) | 0.05 µg/mL (≈ 0.066 µM) | 0.2 µg/mL (≈ 0.264 µM) | 0.1 µg/mL (≈ 0.132 µM) | 0.78 µg/mL (≈ 1.03 µM) | 0.05 µg/mL (≈ 0.066 µM) | 0.02 µg/mL (≈ 0.0264 µM) | 0.2 µg/mL (≈ 0.264 µM) | MIC (Acinetobacter SP CMX 669; SPCMX669, read-out: MIC): 100 µg/mL (≈ 132 µM); MIC ([1]; Pseudomonas aeruginosa A5007, BHI agar, 20-24 h, read-out: MIC): > 100 µg/mL; MIC ([2]; Enterococcus faecium, ATCC8043, 24 h): 0.2 µg/mL (≈ 0.264 µM); MIC (Pseudomonas cepacia 2961; Burkholderia cepacia, read-out: MIC): > 100 µg/mL; MIC ([8]; CMX640, Providencia stuartii CMX 640, BHI agar, 20-24 h, read-out: MIC): > 100 µg/mL; MIC ([9]; read-out: MIC): 100 µg/mL (≈ 132 µM); MIC ([10]; Pseudomonas aeruginosa K799/WT, BHI agar, 20-24 h): 50 µg/mL (≈ 66 µM); MIC (Escherichia coli JUHL; read-out: MIC): 100 µg/mL (≈ 132 µM); MIC (Escherichia coli DC-2; DC2, read-out: MIC): 100 µg/mL (≈ 132 µM); MIC (Escherichia coli H560; read-out: MIC): 100 µg/mL (≈ 132 µM); MIC (Staphylococcus aureus 45; read-out: MIC): 0.2 µg/mL (≈ 0.264 µM); MIC ([17]; ATCC13048, read-out: MIC): 100 µg/mL (≈ 132 µM); MIC ([18]; read-out: MIC): 0.78 µg/mL (≈ 1.03 µM) |
